According to patent US7256172B1, “Method of treatment and agents useful for same” (The University of Melbourne, priority 1998, dated 2007):
Like-named read-outs stand apart in the source and are kept apart here. No end group written: not given here.

Legend:
[1] = test system: human coronary artery rings
[2] = test system: rat gastric fundus; details: mucosa intact, contracted with acetylcholine
Text: Longitudinal strips of gastric fundus from male Sprague-Dawley rats were suspended under 1 g passive isometric tension in Krebs solution.

[3] = test system: guinea-pig isolated bronchi
Text: (§1) The right and left main bronchi and their first order branches of specific pathogenfree (SPF) Balb/c mice (15–20 g; either sex), Hartley tricolour guinea-pigs (300–400 g; male) and Sprague-Dawley rats (200–350 g; either sex), all killed by either cervical dislocation or overdosed (i.p.) with sodium pentobarbitone, were cleared of surrounding connective tissue, nerves and blood vessels under a dissecting microscope and placed in cold, carbogenated (95% v/v O2,5% v/v CO2) Krebs solution (Kemp and Cocks, 1997). Human airway preparations (0.5–1 mm in external diameter) were dissected from lungs of cancer patients undergoing thoracotomy at The Royal Melbourne Hospital, Melbourne, Australia. The epithelium was removed from some bronchi either by mechanical abrasion of the luminal surface (guinea-pig) or by brief, gentle intraliminal flushing of the airways with Krebs containing 0.1% v/v Triton-X100 (mouse and rat). In each case, removal of the epithelium was verified histologically in 8 μm formalin-fixed, paraffin sections stained with haemotoxylin and eosin. Ring segments (approximately 2 mm long) of bronchi and bronchioles were mounted in Krebs (37° C.) on stainless steel wires (40 μm) in dual channel (5 ml) Mulvany-Halpern myographs (JP Trading, Aarhus, Denmark) to record changes in isometric force (Kemp and Cocks, 1997). After equilibration at a passive force between 0.2 g and 0.3 g, tissues were contracted to their maximum levels of active force (Fm.),) with acetylcholine (30 μM), thoroughly washed with Krebs and allowed to return to baseline. Various drugs or their vehicles were then added and 30 min later all tissues were contracted to approximately 40% Fmax with titrated concentrations of carbachol (10–500 nM). The L-type voltage-operated Ca^2+ channel inhibitor, nifedipine (0.3 μM) was added to all mouse and rat tissues after obtaining Fmax to control characteristic phasic contractile activity with carbachol.
(§2) Mouse bronchus preparations were carefully mounted horizontally on fine (40 μm) stainless steel wires attached to the jaws of a Mulvany-Halpem myograph. After 60 min at 37° C., all rings were stretched to 0.5 g passive force, which had been determined in preliminary experiments to be optimal, and allowed to recover from that stretch for a further 30 min. Maximum contraction (Fmax) in each tissue was then determined with exogenously applied acetylcholine (ACh; 30 μM) followed by washout. A further 30 min equilibration time was allowed before the tissues were actively contracted to between 20% and 60% of their individual Fm.” values with titrated concentrations of carbachol (10–100 nM).

[4] = test system: rat isolated bronchi
Text: as §1
(§3) All cumulative responses (relaxations and contractions) were normalised as percentages of the initial level of active force to carbachol. Results are presented as mean±s.e mean and pEC50 (sensitivity) values were calculated by fitting concentration-response curves to a four parameter logistic function (Kemp and Cocks, 1997) using Graphpad Prism (version 2.0). Statistical comparison of mean pEC50 and maximum response (Rmax) values were compared by two-tailed unpaired Student's t-tests or one way analysis of variance (ANOVA) with Tukey-Kramer's t-tests for multiple comparisons. P<0.05 was accepted as significant. Unless specified, all averaged data are from n>5 experiments.

[5] = test system: first generation branches of the mouse main bronchi; details: mouse bronchioles
Text: as §1, §3

[6] = test system: guinea-pig taenia coli
Method: 2 cm strips of teania coil with intact Auerbach's plexus, but which had been stripped of the mucosa, were suspended in Kreb's solution under 1 g passive tension, and contracted with histamine (1 μM) to induce active tension.

[7] = test system: mouse bronchial rings; details: for relaxation in presence of NO blockers: L—NOARG (100 μM) and HbO (20 μM); for response of epithelium-intact bronchi: contracted to approximately 40% Fmax with carbachol; for relaxation after removal of the epithelium: epithelium removed with 0.1% v/v Triton X-100; for response in presence of cyclooxygenase inhibitors: indomethacin (3 μM) or aspirin (100 μM); for maximum relaxation (Rmax) / sensitivity (pEC50): main bronchi with epithelium; for maximum relaxation (Rmax): % of initial force to carbachol; for sensitivity (pEC50): contracted with carbachol; for response after desensitisation to thrombin: post-thrombin; for response after desensitisation to trypsin: post-trypsin
Text: as §1
If no response occurred the tissues were then exposed to cumulative concentrations of either SLIGRL—NH2 (SEQ ID NO:2) or SFLLRN—NH2 (SEQ ID NO:1) (0.1–30 μM).
as §3, with “Results” for “All cumulative responses (relaxations and contractions) were normalised as percentages of the initial level of active force to carbachol. Results”
as §2, with “nM). […] In some cases, tissues were treated with a range of drugs prior to contraction to approximately […] Fmax. These included the cyclooxygenase inhibitors indomethacin and aspirin, the nitric oxide (NO) synthase inhibitor N′-nitro-L-(L-NOARG), the NO scavenger oxyhaemoglobin (Hb0), and the L-voltage-operated Cat' channel inhibitor nifedipine.” for “nM).”
After an initial passive stretch to 0.5 g (Ti) and recovery, each ring was contracted with acetylcholine (Ach; 30 μM). The contraction was taken as the tissue maximum and referred to as Fmax.

[8] = test system: isolated human bronchioles
Method: Small (500 μm) bronchioles were carefully dissected from discarded sections of human left lung which had been excised at surgery from two male lung cancer patients (Royal Melbourne Hospital, Melbourne, Australia).
Dissection of these bronchioles required a fine-dissecting microscope and an assistant to continually flood the preparation with cold oxygenated Krebs solution to remove air bubbles and keep the tissue viable. Bronchioles approximately 2 mm in length were then mounted on […] diameter stainless wires in a Krebs solution-filled myograph chamber, as described for the mouse bronchus preparation above.

[9] = desensitized to both thrombin and trypsin

Substance | response of rat gastric fundus [2] | response of epithelium-intact rings [3] | maximum relaxation (Rmax) [5] [%] | sensitivity (pEC50) [5] | relaxation in presence of NO blockers [7] | response of epithelium-intact bronchi [7] | relaxation after removal of the epithelium [7] | response in presence of cyclooxygenase inhibitors [7] | maximum relaxation (Rmax) [7] [%] | sensitivity (pEC50) [7] | response after desensitisation to thrombin [7] | response after desensitisation to trypsin [7] | response of human bronchioles [8] | further results
SFLLRN [SFLLRN—NH2] | relaxation | only caused concentration-dependent contractions | 58±10 | 5.5±0.02 | unaffected | powerful concentration dependent relaxations | abolished | converted to concentration-dependent contractions | 76±11 | 5.6±0.1 −log M | abolished | abolished | relaxed the bronchioles | Rmax after desensitisation [1, 9]: 92.0±5.0%; pEC50 after desensitisation [1, 9]: 6.4±0.2; relaxation after removal of the endothelium ([1]; endothelium-denuded): abolished; maximum (Rmax % contraction reversal) ([1]; endothelium-intact, control): 95.2±1.3%; pEC50 ([1]; endothelium-intact, control): 6.9±0.1 −log M; pEC50, untreated control of desensitisation experiment ([1]; untreated, n=8): 7.0±0.1; response of rat bronchial rings [4]: only caused a contraction; relaxation in presence of apamin ([6]; apamin (100 μM)): inhibited; relaxation of taenia coli ([6]; contracted with histamine (1 μM)): relaxed in response to TRAP in a concentration-dependent manner; maximum relaxation relative to isoprenaline plus IBMX ([8]; contracted to approximately 30% Fmax with carbachol): approximately 30%
SLIGRL-NH2 [SLIGRL—NH2] | relaxation | Concentration dependent relaxations to PAR2-AP were observed in six out of thirteen bronchial rings | 58±4 | 5.1±0.05 | unaffected | powerful concentration dependent relaxations | abolished | abolished | 94±3 | 5.6±0.1 −log M | unaffected | abolished | appeared to cause some contraction, but this was most likely baseline drift | relaxation ([1]; endothelium-intact): no relaxation; response of epithelium-denuded rings ([3]; epithelium-denuded): either caused a small contraction or no response; Rmax ([3]; guinea-pig bronchi): 31±5%; pEC50 ([3]; guinea-pig bronchi): 5.4±0.2; Rmax ([4]; rat bronchi): 56±5%; pEC50 ([4]; rat bronchi): 5.5±0.1; response after desensitisation to trypsin ([7]; listed as PAR2-AP): virtually abolished
